Test results as given in ChEMBL document CHEMBL1201862, “PubChem BioAssay data set” (2004).
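Test compounds were applied to cells in 96-well plates for 48 hours at 5 doses. GI50 is the concentration that inhibits growth by half.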 Activity calls are given as the source filed them. Rule as the data show it: active = GI50 up to about 1.1 µM and inactive = higher.

Key:
Experiment in all cases: DTP human tumour cell line panel, 48 h
786-0 = tested on: 786-0
A549 = tested on: A549
COLO 205 = tested on: COLO 205
HOP-92 = tested on: HOP-92
IGROV-1 = tested on: IGROV-1
KM12 = tested on: KM12
LOX IMVI = tested on: LOX IMVI
MOLT-4 = tested on: MOLT-4
Malme-3M = tested on: Malme-3M
NCI-H226 = tested on: NCI-H226
NCI-H522 = tested on: NCI-H522
OVCAR-4 = tested on: OVCAR-4
OVCAR-5 = tested on: OVCAR-5
TK-10 = tested on: TK-10
U-251 = tested on: U-251
UACC-62 = tested on: UACC-62
UO-31 = tested on: UO-31

Measured: GI50

CCCN1C(=O)C/C(=C\C(C)=O)Nc2ccccc21
inactive: 786-0 > 100 µM | A549 > 100 µM | COLO 205 86.3 µM | HOP-92 > 100 µM | IGROV-1 > 100 µM | KM12 > 100 µM | LOX IMVI > 100 µM | MOLT-4 > 100 µM | Malme-3M > 100 µM | NCI-H226 37.2 µM | NCI-H522 > 100 µM | OVCAR-4 > 100 µM | OVCAR-5 > 100 µM | TK-10 > 100 µM | U-251 > 100 µM | UACC-62 > 100 µM | UO-31 > 100 µM

COC1=CC(=O)c2c(cc3c(c2O)-c2c(OC)cc4cc5c(c(O)c4c2OC(=O)CC(C)(O)C3)C(=O)CC(C)(O)C5)C1=O (stereo not drawn)
inactive: 786-0 2.65 µM | A549 2.68 µM | COLO 205 1.57 µM | HOP-92 1.95 µM | IGROV-1 1.9 µM | KM12 2.41 µM | LOX IMVI 1.22 µM | MOLT-4 2.27 µM | Malme-3M 1.82 µM | NCI-H226 1.84 µM | NCI-H522 1.32 µM | OVCAR-4 3.15 µM | OVCAR-5 2.14 µM | TK-10 3.85 µM | U-251 2.77 µM | UACC-62 1.19 µM | UO-31 1.73 µM

Cc1cc(=O)cc2sc3cc(Cl)ccc3nc1-2
inactive: 786-0 12 µM | A549 4.49 µM | COLO 205 22.3 µM | HOP-92 22.3 µM | IGROV-1 12.1 µM | KM12 4.5 µM | LOX IMVI 11.9 µM | MOLT-4 12.6 µM | Malme-3M 11.5 µM | NCI-H226 25.4 µM | NCI-H522 2.54 µM | OVCAR-4 22.2 µM | OVCAR-5 21.1 µM | TK-10 25.4 µM | U-251 6.53 µM | UACC-62 6.84 µM | UO-31 13.7 µM

Cc1ccc(C(=O)/C=C/c2cccc([N+](=O)[O-])c2)cc1
inactive: 786-0 28.4 µM | A549 > 100 µM | COLO 205 > 40.7 µM | HOP-92 > 100 µM | IGROV-1 > 67.9 µM | KM12 24.1 µM | LOX IMVI 66.4 µM | MOLT-4 4.7 µM | Malme-3M > 100 µM | NCI-H226 > 58.7 µM | NCI-H522 62.5 µM | OVCAR-4 46.9 µM | TK-10 > 100 µM | U-251 22.2 µM | UACC-62 > 100 µM | UO-31 46.9 µM

COC(=O)C(=O)C(C#N)c1c(Cl)cccc1Cl (stereo not drawn)
inactive: 786-0 > 100 µM | A549 > 100 µM | COLO 205 > 100 µM | HOP-92 > 100 µM | IGROV-1 > 100 µM | LOX IMVI > 100 µM | MOLT-4 > 100 µM | Malme-3M > 100 µM | NCI-H226 > 100 µM | NCI-H522 > 100 µM | OVCAR-4 > 100 µM | OVCAR-5 > 100 µM | TK-10 > 100 µM | UACC-62 > 100 µM | UO-31 > 100 µM

C[n+]1c2ccccc2c(/C=N\NS(=O)(=O)c2ccc(O)c(C(=O)O)c2)c2ccccc21
inactive: 786-0 34.4 µM | A549 23.4 µM | HOP-92 46.7 µM | IGROV-1 58.5 µM | KM12 60.3 µM | LOX IMVI 12.9 µM | MOLT-4 18.5 µM | Malme-3M > 100 µM | NCI-H226 26.1 µM | NCI-H522 30.6 µM | OVCAR-4 > 100 µM | OVCAR-5 > 100 µM | TK-10 > 100 µM | U-251 94 µM | UACC-62 49.3 µM | UO-31 29.2 µM
